The results in this text go back to patent US12583818B2 (DAEGU-GYEONGBUK MEDICAL INNOVATION FOUNDATION, priority 2020, dated 2026).

Experiment [1] has as its system MDA-MB 231 triple negative breast cancer cell line. Nature of the experiment: MDA-MB 231 protein expression inhibition (Western blotting, cycline D1 vs Vinculin). The experiment is classed as cell-based. The settings on record: Homo sapiens, compound 10 μM, 72 hours, cycline D1 Western blot, read-out: MBA-MB-231 (amount of the protein compared to the DMSO-treated control group). The gist of the method:
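MDA-MB-231 cells were treated with compound at 10 μM (control 0.1% DMSO) for 72 hours. Western blotting of 10 μg lysate protein probed cyclin D1 against vinculin, with ImageJ quantification. Expression was graded A–D relative to the DMSO control.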

Experiment [2] deals with A2780-SP cells (ovarian cancer stem cells). Nature of the experiment: Sphere cell viability of A2780-SP cells (Cell-titer Glo). Format: cell-based. In outline:
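A2780-SP ovarian cancer stem cells grown as spheres in ultra-low-attachment wells (1,500 cells/well) in neurobasal stem-cell medium with bFGF, EGF, B27. Compound added the day after plating, re-dosed on day 4, 8-day culture total; viability by CellTiter-Glo luminescence.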

In experiment [3] the test system is A2780 cells (ovarian cancer cells). Nature of the experiment: Cell viability of A2780 cells (Cell-titer Glo). The experiment is classed as cell-based. The settings on record: Homo sapiens. The gist of the method: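 A2780 ovarian cancer cells seeded at 3000 viable cells/well in RPMI-1640 with 10% FBS, dosed the next day and grown 3 days. Viability measured by Cell-titer Glo luminescence.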

Experiment [4] concerns MCF7 cells (breast cancer cells). Description: Cell viability of MCF7 cells (Cell-titer Glo). The settings on record: Homo sapiens. Format: cell-based. As to the method: (§1) In order to confirm the inhibitory effect of the compound represented by formula 1 according to the present invention on the growth of MCF7, MCF7-SP, A2780 or A2780-SP cells, the following experiment was performed, and the results are shown in Tables 4 and 5 below.
MCF7 cells (breast cancer cells) were plated in a 96-well plate at the density of 3000 viable cells per well, and cultured in DMEM/High glucose medium supplemented with 10% FBS and 1% penicillin/streptomycin.
On the next day of culture, the cells were treated with the compound of Example 71, 76, 80, 84, 92, 99, 100 or 119, followed by culture for 3 days. Cell viability was evaluated by Cell-titer Glo (Promega, WC, USA), and luciferase activity was detected using a Tecan plate reader (Biocompare, USA).

For experiment [5], the system named is MCF7-SP cells (breast cancer stem cells). Description: Sphere cell viability of MCF7-SP cells (Cell-titer Glo). The experiment is classed as cell-based. Here is the method:
as §1
On the other hand, MCF7-SP cells (breast cancer stem cells) were plated in an Ultra-Low Attachment round bottom 96-well plate (corning) at the density of 1,500 viable cells per well, and cultured in cancer stem cell medium. The cancer stem cell medium is composed of the neurobasal medium supplemented with 20 ng/ml of bFGF, 10 ng/ml of EGF, 2.5 […], HEPES, Glutamax and B27.
On the next day of culture, the cells were treated with the compound of Example 71, 76, 80, 84, 92, 99, 100 or 119, followed by culture for 8 days. The medium containing the compound was added thereto once again on the 4th day. Sphere cell viability was evaluated by Cell-titer Glo (Promega, WC, USA), and luciferase activity was detected using a Tecan plate reader (Biocompare, USA).

A further experiment concerns the target T1, Pin1 (Homo sapiens, UniProt Q13526).
T1 construct: purchased Anaspec
Description: Evaluation of Pin1 enzyme inhibitory activity (Sensolyte Green Pin1 assay kit). Format: biochemical. In outline:
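Pin1 activity was measured with a fluorogenic kit assay (Sensolyte Green) using substrate prepared at 1 μM and protein at 50 μg/ml, both pre-mix concentrations. Compound working solutions were 100, 10, 1 or 0.1 μM, and reactions ran 2 h at room temperature in the dark, read at 490/520 nm. Inhibition was graded A–D by concentration.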

[6] abbreviates: 192 h, sphere cell viability, culture for 8 days, read-out: A2780-SP.
Where [7] appears, read: Table 5, read-out: the concentration (second list of b710, cell line not named; matches A2780-SP column).
[8] abbreviates: 72 h, cell viability, culture for 3 days, read-out: A2780.
The mark [9] stands for this setting: A2780, Table 5, read-out: A2780 cell concentration.
The mark [10] stands for this setting: 72 h, cell viability, culture for 3 days, read-out: MCF7.
The mark [11] stands for this setting: MCF7, text summary of Table 4, read-out: MCF7 cell concentration.
The mark [12] stands for this setting: 192 h, sphere cell viability, culture for 8 days, read-out: MCF7-SP.
Where [13] appears, read: text summary of Table 4, read-out: MCF7-SP cell concentration.
Where [14] appears, read: Table 2, read-out: concentration at which Pin1 inhibitory activity was exhibited.
Setting [15] is: concentration at which the Pin1 enzyme activity is inhibited, 2 hours at room temperature, fluorescence 490 nm/520 nm, read-out: Pin 1 inhibition.

Like-named read-outs stand apart in the source and are kept apart here.

T1 sequence (Q13526 whole entry): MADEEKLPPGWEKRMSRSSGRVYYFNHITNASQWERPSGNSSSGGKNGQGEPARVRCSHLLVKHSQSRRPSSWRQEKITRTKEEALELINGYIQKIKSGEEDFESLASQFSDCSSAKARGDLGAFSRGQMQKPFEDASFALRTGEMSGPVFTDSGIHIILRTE

For the compound `CN1CCCN(CCCOc2ccc(S(=O)(=O)NCCCc3c[nH]c4ccc(Cl)cc34)cc2)CC1` [Example 83, N-(3-(5-chloro-1H-indol-3-yl)propyl)-4-(3-(4-methyl-1,4-diazepan-1-yl)propoxy)benzenesulfonamide], the activity at 10 µM in experiment [1] lay within 0 to 35%. For the same compound, the IC50 in experiment [2] (setting [6]) is below 1 µM; in experiment [2] (setting [7]), below 1 µM; in experiment [3] (setting [8]), 1 to 10 µM; in experiment [3] (setting [9]), below 10 µM; in experiment [4] (setting [10]), 1 to 10 µM; in experiment [4] (setting [11]), below 10 µM. Also, the IC50 in experiment [5] (setting [12]) is 1 to 10 µM; in experiment [5] (setting [13]), below 10 µM; on Pin1 (setting [14]), below 1 µM; at Pin1 (setting [15]), below 1 µM.
Regarding `O=S(=O)(NCCCc1c[nH]c2ccc(Cl)cc12)c1ccc(CCCCN2CCNCC2)cc1` [Example 91, N-(3-(5-chloro-1H-indol-3-yl)propyl)-4-(4-(piperazin-1-yl)butyl)benzenesulfonamide], the activity at 10 µM in experiment [1] was 0 to 35%. Also, the IC50 in experiment [2] (setting [6]) was below 1 µM; in experiment [2] (setting [7]) it was below 1 µM; in experiment [3] (setting [8]) it was above 10 µM; in experiment [4] (setting [10]), 1 to 10 µM; in experiment [4] (setting [11]) it was below 10 µM; in experiment [5] (setting [12]), 1 to 10 µM. The IC50 was below 10 µM in experiment [5] (setting [13]), below 1 µM at Pin1 (setting [14]) and below 1 µM at Pin1 (setting [15]).
`CN1CCN(CCCNc2ccc(S(=O)(=O)NCCCc3c[nH]c4ccc(Cl)cc34)cc2)CC1` [Example 98, N-(3-(5-chloro-1H-indole-3-yl)propyl)-4-((3-(4-methylpiperazine-1-yl)propyl)amino)benzenesulfonamide]: the activity at 10 µM in experiment [1] lay in the range of 0 to 35%. Further, the IC50 is 1 to 10 µM in experiment [2] (setting [6]); 1 to 10 µM in experiment [3] (setting [8]); below 10 µM in experiment [3] (setting [9]); above 10 µM in experiment [4] (setting [10]); above 10 µM in experiment [5] (setting [12]); below 1 µM at Pin1 (setting [14]). Moreover, the IC50 on Pin1 (setting [15]) is below 1 µM.
For `O=S(=O)(NCCCc1c[nH]c2ccc(Cl)cc12)c1ccc(CCCCC2CCNCC2)cc1` [Example 99, N-(3-(5-chloro-1H-indole-3-yl)propyl)-4-(4-(piperidine-4-yl)butyl)benzenesulfonamide], in experiment [1], the activity at 10 µM lay within 0 to 35%. The IC50 in experiment [2] (setting [6]) is below 1 µM; in experiment [2] (setting [7]) it was below 1 µM; in experiment [3] (setting [8]), 1 to 10 µM; in experiment [3] (setting [9]), below 10 µM; in experiment [4] (setting [10]), 1 to 10 µM; in experiment [4] (setting [11]), below 10 µM. In addition, the IC50 was 1 to 10 µM in experiment [5] (setting [12]), below 10 µM in experiment [5] (setting [13]), below 1 µM at Pin1 (setting [14]) and below 1 µM on Pin1 (setting [15]).
On to `CN1CCN(c2cccc(Oc3ccc(S(=O)(=O)NCCCc4c[nH]c5ccc(Cl)cc45)cc3)c2)CC1` [Example 118, N-(3-(5-chloro-1H-indole-3-yl)propyl)-4-(3-(4-methylpiperazine-1-yl)phenoxy)benzenesulfonamide], for which, in experiment [1], the activity at 10 µM is 50 to 70%. The IC50 was below 1 µM in experiment [2] (setting [6]); below 1 µM in experiment [2] (setting [7]); above 10 µM in experiment [3] (setting [8]); 1 to 10 µM in experiment [4] (setting [10]); below 10 µM in experiment [4] (setting [11]); 1 to 10 µM in experiment [5] (setting [12]). In addition, the IC50 in experiment [5] (setting [13]) was below 10 µM; at Pin1 (setting [14]), below 1 µM; at Pin1 (setting [15]) it was below 1 µM.
